Source: ChEMBL document CHEMBL1135178, “Photo-oxygenation of geraniol: synthesis of a novel series of hydroxy-functionalized anti-malarial 1,2,4-trioxanes” (2002)
Converted amounts (≈) assume the structure as drawn.

Experiments:
Plasmodium falciparum = assay: Antimalarial activity against Plasmodium falciparum NF54; format: functional
Mus musculus [1] = assay: Total number of mice protected out of the 5 tested at a dose of 48 mg/kg/day (Observation till day 10 post-infection); format: functional
Mus musculus [2] = assay: The compound was tested in vivo antimalarial response against multidrug-resistant Plasmodium yoelii in Swiss mice (Mus musculus) at a dose of 96 (mg/kg/day) after 10 days; format: functional, organism-based
Mus musculus [3] = assay: The compound was tested in vivo antimalarial response against multidrug-resistant Plasmodium yoelii in Swiss mice (Mus musculus) at a dose of 24 (mg/kg/day) after 7 days; format: functional
Mus musculus [4] = assay: The compound was tested in vivo antimalarial response against multidrug-resistant Plasmodium yoelii in Swiss mice (Mus musculus) at a dose of 24 mg/kg/day after 10 days; format: functional
Mus musculus [5] = assay: The compound was tested in vivo antimalarial response against multidrug-resistant Plasmodium yoelii in Swiss mice (Mus musculus) at a dose of 96 (mg/kg/day) after 7 days; format: functional, organism-based
Mus musculus [6] = assay: Total number of mice protected out of the 5 tested at a dose of 24 mg/kg/day (Observation till day 10 post-infection); format: functional
Mus musculus [7] = assay: Total number of mice protected out of the 5 tested at a dose of 96 mg/kg/day (Observation till day 10 post-infection); format: functional
Mus musculus [8] = assay: The compound was tested in vivo antimalarial response against multidrug-resistant Plasmodium yoelii in Swiss mice (Mus musculus) at a dose of 48 (mg/kg/day) after 7 days; format: functional
Mus musculus [9] = assay: The compound was tested in vivo antimalarial response against multidrug-resistant Plasmodium yoelii in Swiss mice (Mus musculus) at a dose of 24 (mg/kg/day) after 4 days; format: functional
Mus musculus [10] = assay: The compound was tested in vivo antimalarial response against multidrug-resistant Plasmodium yoelii in Swiss mice (Mus musculus) at a dose of 96 (mg/kg/day) after 4 day; format: functional, organism-based
Mus musculus [11] = assay: (§1) The compound was tested in vivo antimalarial response against multidrug-resistant Plasmodium yoelii in Swiss mice (Mus musculus) at a dose of 48 (mg/kg/day) after 4 day; format: functional, organism-based
Mus musculus [12] = assay: The compound was tested in vivo antimalarial response against multidrug-resistant Plasmodium yoelii in Swiss mice (Mus musculus) at a dose of 48 (mg/kg/day) after 10 days; format: functional
Mus musculus [13] = assay: as §1; format: functional

C=C(CCCO)C1COC2(CCCCC2)OO1 (stereo unspecified) was tested. Which MIC (Plasmodium falciparum) did it give?
Its MIC is 1 µg/mL (≈ 4.13 µM).

For C[C@@H]1CC[C@H]2[C@@H](C)C(=O)O[C@@H]3O[C@@]4(C)CC[C@@H]1[C@]32OO4 [ARTEMISININ], which MIC (Plasmodium falciparum) is on record?
The MIC was 0.031 µg/mL (≈ 0.11 µM).

C=C(C)C(O)CCC(=C)C1COC2(OO1)C1CC3CC(C1)CC2C3 (stereo unspecified) was tested. Which “No. of mice protected” value (Mus musculus [1]) did it give?
Its value is 4.

What about the Parasitemia (Mus musculus [2]) of the same compound?
The Parasitemia was “Nil”.

What about the Parasitemia (Mus musculus [3]) of the same compound?
Its Parasitemia is 13.38%.

And the Parasitemia (Mus musculus [4])?
The Parasitemia was 28.4%.

What about the Parasitemia (Mus musculus [5]) of the same compound?
The Parasitemia was “Nil”.

And the MIC (Plasmodium falciparum)?
Its MIC is 0.031 µg/mL (≈ 0.0927 µM).

What about the “No. of mice protected” value (Mus musculus [6]) of the same compound?
Its value is 2.

What about the “No. of mice protected” value (Mus musculus [7]) of the same compound?
The value was 5.

What about the Parasitemia (Mus musculus [8]) of the same compound?
Its Parasitemia is 2.04%.

What about the Parasitemia (Mus musculus [9]) of the same compound?
Its Parasitemia is 2.42%.

What about the Parasitemia (Mus musculus [10]) of the same compound?
Its Parasitemia is “Nil”.

What about the Parasitemia (Mus musculus [11]) of the same compound?
The Parasitemia was “Nil”.

And the Parasitemia (Mus musculus [12])?
Its Parasitemia is 10.5%.

For C=C(CCCO)C1COC2(OO1)C1CC3CC(C1)CC2C3 (stereo unspecified), which MIC (Plasmodium falciparum) is on record?
Its MIC is 0.125 µg/mL (≈ 0.425 µM).

C=C(C)C(O)CCC(=C)C1COC2(CCCCC2)OO1 (stereo unspecified) was tested. Which MIC (Plasmodium falciparum) did it give?
Its MIC is 0.125 µg/mL (≈ 0.443 µM).

C=C(C)C(O)CCC(=C)C1COC2(CCCC2)OO1 (stereo unspecified) was tested. Which MIC (Plasmodium falciparum) did it give?
Its MIC is 0.125 µg/mL (≈ 0.466 µM).

How did the MIC (Plasmodium falciparum) turn out when C=C(CCCO)C1COC(C)(C)OO1 (stereo unspecified) was run?
The MIC was 1 µg/mL (≈ 4.94 µM).

C=C(CCCO)C1COC2(CCCC2)OO1 (stereo unspecified) was tested. Which MIC (Plasmodium falciparum) did it give?
Its MIC is 0.25 µg/mL (≈ 1.1 µM).

CCN(CC)CCCC(C)Nc1ccnc2cc(Cl)ccc12 (stereo unspecified) [CHLOROQUINE] was tested. Which “No. of mice protected” value (Mus musculus [1]) did it give?
Its value is 3.

And the MIC (Plasmodium falciparum)?
The MIC was 0.04 µg/mL (≈ 0.125 µM).

And the Parasitemia (Mus musculus [8])?
The Parasitemia was 17.6%.

And the Parasitemia (Mus musculus [13])?
Its Parasitemia is 1.53%.

What about the Parasitemia (Mus musculus [12]) of the same compound?
Its Parasitemia is 32.74%.

Which MIC (Plasmodium falciparum) does the source give for C=C(C)C(O)CCC(=C)C1COC(C)(C)OO1 (stereo unspecified) here?
Its MIC is 0.5 µg/mL (≈ 2.06 µM).
